Assay [1] deals with T1, BACE1 (Homo sapiens (Human), UniProt P56817). As to the kind of experiment: In vitro enzymatic BACE1 FRET assay. The format is biochemical. The conditions noted are these: read-out: IC50 IP (μM) BACE1 Enzyme.
Target sequence in this assay (P56817 46-501): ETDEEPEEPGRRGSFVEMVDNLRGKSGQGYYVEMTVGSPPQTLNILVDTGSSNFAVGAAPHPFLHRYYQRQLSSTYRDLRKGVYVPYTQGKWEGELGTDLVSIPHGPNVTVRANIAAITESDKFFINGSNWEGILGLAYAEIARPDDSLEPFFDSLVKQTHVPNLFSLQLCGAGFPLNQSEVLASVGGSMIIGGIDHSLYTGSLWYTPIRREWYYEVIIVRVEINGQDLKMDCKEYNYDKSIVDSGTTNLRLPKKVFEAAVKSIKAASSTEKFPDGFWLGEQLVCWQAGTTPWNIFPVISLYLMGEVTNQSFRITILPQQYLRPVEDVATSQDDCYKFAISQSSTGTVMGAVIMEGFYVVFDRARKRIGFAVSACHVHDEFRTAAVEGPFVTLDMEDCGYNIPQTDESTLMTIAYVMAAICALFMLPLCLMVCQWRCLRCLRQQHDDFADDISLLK
Text: (§1) In Vitro Enzymatic BACE1 and BACE2 FRET (Fluorescence Resonance Energy Transfer) Assays (Enzyme Assay Data in Table 1)
For assay [2], the target named is T1, BACE1. As to the kind of experiment: BACE1 cell assay. It is filed as cell-based.
Target sequence in this assay (P56817 46-501, species assumed): as the sequence (P56817 46-501) above
The target in a further assay is Cathepsin D (CatD) (Homo sapiens (Human), UniProt P07339). As to the kind of experiment: CatD assay. The format is biochemical. Conditions: read-out: IC50 IP (μM) CatD.
In another assay the target is BACE2 (Homo sapiens (Human), UniProt Q9Y5Z0). The assay is described as follows: In vitro enzymatic BACE2 FRET assay. Conditions: read-out: IC50 IP (μM) BACE2 Enzyme. It is filed as biochemical.
The mark [3] stands for this setting: read-out: IC50 IP (μM) BACE1 Cell.

This note sets out measurements from US10246429B2, “Vinyl fluoride cyclopropyl fused thiazin-2-amine compounds as beta-secretase inhibitors and methods of use” (AMGEN INC., priority 2015, dated 2019).

As usually defined, the IC50 is the midpoint of a concentration-inhibition curve.

Chain of Cathepsin D (CatD) (P07339 65-412, species assumed): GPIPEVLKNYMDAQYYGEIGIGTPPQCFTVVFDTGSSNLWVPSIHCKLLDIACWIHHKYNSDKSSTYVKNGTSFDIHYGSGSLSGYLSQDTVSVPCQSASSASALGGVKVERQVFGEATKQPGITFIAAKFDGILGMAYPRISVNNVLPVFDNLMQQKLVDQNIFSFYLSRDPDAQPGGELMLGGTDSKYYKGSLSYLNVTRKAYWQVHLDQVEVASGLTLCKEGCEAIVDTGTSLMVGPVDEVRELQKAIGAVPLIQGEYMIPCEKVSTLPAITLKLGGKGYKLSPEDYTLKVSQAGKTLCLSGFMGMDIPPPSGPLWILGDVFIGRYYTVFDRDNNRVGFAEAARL
Chain of BACE2 (Q9Y5Z0 63-518): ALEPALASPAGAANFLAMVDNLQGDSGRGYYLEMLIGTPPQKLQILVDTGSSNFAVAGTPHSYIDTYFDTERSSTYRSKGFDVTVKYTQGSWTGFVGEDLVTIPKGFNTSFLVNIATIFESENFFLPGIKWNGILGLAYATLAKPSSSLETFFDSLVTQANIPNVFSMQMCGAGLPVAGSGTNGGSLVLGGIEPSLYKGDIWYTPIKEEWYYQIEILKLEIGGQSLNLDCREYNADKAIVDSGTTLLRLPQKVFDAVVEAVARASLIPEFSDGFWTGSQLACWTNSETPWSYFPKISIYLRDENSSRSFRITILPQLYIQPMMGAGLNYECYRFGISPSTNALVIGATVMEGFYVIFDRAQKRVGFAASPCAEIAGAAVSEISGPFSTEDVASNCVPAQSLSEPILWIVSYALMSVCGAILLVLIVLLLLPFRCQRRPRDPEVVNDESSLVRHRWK
Text for BACE2: as §1

With `C[C@]1(c2cc(/C=C(\F)c3cnc(C#N)cn3)ccc2F)N=C(N)S[C@@]2(C(=O)N3CCCCC3)C[C@H]21` [Example 201, 5-((Z)-2-(3-((1S,5S,6S)-3-amino-5-methyl-1-(piperidine-1-carbonyl)-2-thia-4-azabicyclo[4.1.0]hept-3-en-5-yl)-4-fluorophenyl)-1-fluorovinyl)pyrazine-2-carbonitrile], the IC50 at BACE1 [1] turned out to be 0.001 µM; at BACE1 [2] (setting [3]), 0.009 µM; on Cathepsin D (CatD), 16.7 µM; at BACE2, 0.074 µM.
Take `C#Cc1cnc(/C(F)=C/c2ccc(F)c([C@@]3(C)N=C(N)S[C@@]4(C(=O)N(C)C)C[C@H]43)c2)cn1` [Example 205, (1S,5S,6S)-3-amino-5-(5-((Z)-2-(5-ethynylpyrazin-2-yl)-2-fluorovinyl)-2-fluorophenyl)-N,N,5-trimethyl-2-thia-4-azabicyclo[4.1.0]hept-3-ene-1-carboxamide]: the IC50 on BACE1 [1] was determined as 0.002 µM; on BACE1 [2] it was 0.569 µM; on Cathepsin D (CatD) it was 113 µM; on BACE2, 0.01 µM.
`CN(C)C(=O)[C@]12C[C@H]1[C@@](C)(c1cc(/C=C(\F)I)ccc1F)N=C(N)S2` [Example 206, (1S,5S,6S)-3-amino-5-(2-fluoro-5-((E)-2-fluoro-2-iodovinyl)phenyl)-N,N,5-trimethyl-2-thia-4-azabicyclo[4.1.0]hept-3-ene-1-carboxamide]: the IC50 on BACE1 [1] came out at 0.01 µM; at BACE1 [2] (setting [3]), 0.093 µM; on Cathepsin D (CatD), 12.2 µM; at BACE2 it was 0.008 µM.
The corresponding values for `CN(C)C(=O)[C@]12C[C@H]1[C@@](C)(c1cc(/C=C(\F)C#Cc3ccccc3)ccc1F)N=C(N)S2` [Example 207, (1S,5S,6S)-3-amino-5-(2-fluoro-5-((Z)-2-fluoro-4-phenylbut-1-en-3-yn-1-yl)phenyl)-N,N,5-trimethyl-2-thia-4-azabicyclo[4.1.0]hept-3-ene-1-carboxamide] are 0.005 µM, 0.335 µM, 14.6 µM and 0.018 µM.
On to `CC#C/C(F)=C/c1ccc(F)c([C@@]2(C)N=C(N)S[C@@]3(C(=O)N(C)C)C[C@H]32)c1` [Example 209, (1S,5S,6S)-3-amino-5-(2-fluoro-5-((Z)-2-fluoropent-1-en-3-yn-1-yl)phenyl)-N,N,5-trimethyl-2-thia-4-azabicyclo[4.1.0]hept-3-ene-1-carboxamide], for which the IC50 was determined as 0.094 µM on BACE1 [1], 0.324 µM on BACE1 [2] (setting [3]), 56 µM on Cathepsin D (CatD) and 0.01 µM on BACE2.
In the case of `COCCOc1cnc(/C(F)=C/c2ccc(F)c([C@@]3(C)N=C(N)S[C@@]4(C(=O)N(C)C)C[C@H]43)c2)cn1` [Example 210, (1S,5S,6S)-3-amino-5-(2-fluoro-5-((Z)-2-fluoro-2-(5-(2-methoxyethoxy)pyrazin-2-yl)vinyl)phenyl)-N,N,5-trimethyl-2-thia-4-azabicyclo[4.1.0]hept-3-ene-1-carboxamide], the IC50 at BACE1 [1] is 0.011 µM; against BACE1 [2] it was 0.007 µM; on Cathepsin D (CatD), 159 µM; at BACE2, 0.072 µM.
Turning to `CN(C)C(=O)[C@]12C[C@H]1[C@@](C)(c1cc(/C=C(\F)c3cnc(OCC4CC4)cn3)ccc1F)N=C(N)S2` [Example 211, (1S,5S,6S)-3-amino-5-(5-((Z)-2-(5-(cyclopropylmethoxy)pyrazin-2-yl)-2-fluorovinyl)-2-fluorophenyl)-N,N,5-trimethyl-2-thia-4-azabicyclo[4.1.0]hept-3-ene-1-carboxamide], the IC50 on BACE1 [1] was determined as 0.022 µM; at BACE1 [2] (setting [3]) it was 0.247 µM; at Cathepsin D (CatD) it was 67.8 µM; on BACE2, 0.044 µM.
The corresponding values for `CN(C)C(=O)[C@]12C[C@H]1[C@@](C)(c1cc(/C=C(\F)c3cnc(OCC4COC4)cn3)ccc1F)N=C(N)S2` [Example 212, (1S,5S,6S)-3-amino-5-(2-fluoro-5-((Z)-2-fluoro-2-(5-(oxetan-3-ylmethoxy)pyrazin-2-yl)vinyl)phenyl)-N,N,5-trimethyl-2-thia-4-azabicyclo[4.1.0]hept-3-ene-1-carboxamide] are 0.076 µM, 0.065 µM, 202 µM and 0.077 µM.
As for `CN(C)C(=O)[C@]12C[C@H]1[C@@](C)(c1cc(/C=C(\F)c3cnc(OCC(F)F)cn3)ccc1F)N=C(N)S2` [Example 213, (1S,5S,6S)-3-amino-5-(5-((Z)-2-(5-(2,2-difluoroethoxy)pyrazin-2-yl)-2-fluorovinyl)-2-fluorophenyl)-N,N,5-trimethyl-2-thia-4-azabicyclo[4.1.0]hept-3-ene-1-carboxamide], the IC50 on BACE1 [1] amounted to 0.021 µM; at BACE1 [2] (setting [3]), 0.039 µM; on Cathepsin D (CatD) it was 103 µM; at BACE2 it was 0.065 µM.
For `COC[C@H](C)Oc1cnc(/C(F)=C/c2ccc(F)c([C@@]3(C)N=C(N)S[C@@]4(C(=O)N(C)C)C[C@H]43)c2)cn1` [Example 214, (1S,5S,6S)-3-amino-5-(2-fluoro-5-((Z)-2-fluoro-2-(5-(((S)-1-methoxypropan-2-yl)oxy)pyrazin-2-yl)vinyl)phenyl)-N,N,5-trimethyl-2-thia-4-azabicyclo[4.1.0]hept-3-ene-1-carboxamide], the IC50 at BACE1 [1] was determined as 0.014 µM; at BACE1 [2] (setting [3]), 0.024 µM; at Cathepsin D (CatD) it was 134 µM; at BACE2, 0.072 µM.
As for `CN(C)C(=O)[C@]12C[C@H]1[C@@](C)(c1cc(/C=C(\F)c3cnc(OCC4CC4(F)F)cn3)ccc1F)N=C(N)S2` (stereo partly drawn) [Example 215, (1S,5S,6S)-3-amino-5-(5-((Z)-2-(5-((2,2-difluorocyclopropyl)methoxy)pyrazin-2-yl)-2-fluorovinyl)-2-fluorophenyl)-N,N,5-trimethyl-2-thia-4-azabicyclo[4.1.0]hept-3-ene-1-carboxamide], the IC50 on BACE1 [1] is 0.037 µM; on BACE1 [2] (setting [3]) it was 0.262 µM; on Cathepsin D (CatD), 121 µM; on BACE2, 0.051 µM.
As for `Cc1nnc(COc2cnc(/C(F)=C/c3ccc(F)c([C@@]4(C)N=C(N)S[C@@]5(C(=O)N(C)C)C[C@H]54)c3)cn2)o1` [Example 216, (1S,5S,6S)-3-amino-5-(2-fluoro-5-((Z)-2-fluoro-2-(5-((5-methyl-1,3,4-oxadiazol-2-yl)methoxy)pyrazin-2-yl)vinyl)phenyl)-N,N,5-trimethyl-2-thia-4-azabicyclo[4.1.0]hept-3-ene-1-carboxamide], the IC50 was 0.007 µM on BACE1 [1], 0.005 µM on BACE1 [2] (setting [3]), 391 µM on Cathepsin D (CatD) and 0.072 µM on BACE2.
Take `Cc1noc(COc2cnc(/C(F)=C/c3ccc(F)c([C@@]4(C)N=C(N)S[C@@]5(C(=O)N(C)C)C[C@H]54)c3)cn2)n1` [Example 217, (1S,5S,6S)-3-amino-5-(2-fluoro-5-((Z)-2-fluoro-2-(5-((3-methyl-1,2,4-oxadiazol-5-yl)methoxy)pyrazin-2-yl)vinyl)phenyl)-N,N,5-trimethyl-2-thia-4-azabicyclo[4.1.0]hept-3-ene-1-carboxamide]: the IC50 on BACE1 [1] was determined as 0.002 µM; on BACE1 [2] (setting [3]), 0.002 µM; on Cathepsin D (CatD), 438 µM; on BACE2 it was 0.07 µM.
On to `Cc1cc(COc2cnc(/C(F)=C/c3ccc(F)c([C@@]4(C)N=C(N)S[C@@]5(C(=O)N(C)C)C[C@H]54)c3)cn2)on1` [Example 218, (1S,5S,6S)-3-amino-5-(2-fluoro-5-((Z)-2-fluoro-2-(5-((3-methylisoxazol-5-yl)methoxy)pyrazin-2-yl)vinyl)phenyl)-N,N,5-trimethyl-2-thia-4-azabicyclo[4.1.0]hept-3-ene-1-carboxamide], for which the IC50 on BACE1 [1] is 0.01 µM; against BACE1 [2], 0.04 µM; at Cathepsin D (CatD) it was 156 µM; at BACE2, 0.033 µM.
As for `CN(C)C(=O)[C@]12C[C@H]1[C@@](C)(c1cc(/C=C(\F)c3ncc(C#N)s3)ccc1F)N=C(N)S2` [Example 219, (1S,5S,6S)-3-amino-5-(5-((Z)-2-(5-cyanothiazol-2-yl)-2-fluorovinyl)-2-fluorophenyl)-N,N,5-trimethyl-2-thia-4-azabicyclo[4.1.0]hept-3-ene-1-carboxamide], the IC50 on BACE1 [1] was 0.004 µM; on BACE1 [2] (setting [3]), 0.005 µM; at Cathepsin D (CatD) it was 110 µM; at BACE2 it was 0.007 µM.
In the case of `CN(C)C(=O)[C@]12C[C@H]1[C@@](C)(c1cc(/C=C(\F)c3ccc(C#N)s3)ccc1F)N=C(N)S2` [Example 220, (1S,5S,6S)-3-amino-5-(5-((Z)-2-(5-cyanothiophen-2-yl)-2-fluorovinyl)-2-fluorophenyl)-N,N,5-trimethyl-2-thia-4-azabicyclo[4.1.0]hept-3-ene-1-carboxamide], the IC50 on BACE1 [1] was 0.011 µM; at BACE1 [2] (setting [3]), 0.022 µM; on Cathepsin D (CatD), 26.4 µM; on BACE2, 0.002 µM.
As to `CN(C)C(=O)[C@]12C[C@H]1[C@@](C)(c1cc(/C(F)=C/c3ccc(C#N)cc3)ccc1F)N=C(N)S2` [Example 221, (1S,5S,6S)-3-amino-5-(5-((Z)-2-(4-cyanophenyl)-1-fluorovinyl)-2-fluorophenyl)-N,N,5-trimethyl-2-thia-4-azabicyclo[4.1.0]hept-3-ene-1-carboxamide], the IC50 on BACE1 [1] was determined as 0.128 µM; at BACE1 [2] it was 0.575 µM; at Cathepsin D (CatD) it was 48.6 µM; on BACE2, 0.302 µM.
Taken in the same sequence, the figures for `CNC(=O)[C@]12C[C@H]1[C@@](C)(c1cc(/C=C(\F)c3ccc(C(F)(F)F)cn3)ccc1F)N=C(N)S2` [Example 224, (1S,5S,6S)-3-amino-5-(2-fluoro-5-((Z)-2-fluoro-2-(5-(trifluoromethyl)pyridin-2-yl)vinyl)phenyl)-N,5-dimethyl-2-thia-4-azabicyclo[4.1.0]hept-3-ene-1-carboxamide] were 0.015 µM, 0.031 µM, 396 µM and 0.564 µM.
